These results are taken from patent publication US12630506B2, “Direct thrombin inhibitors and methods of use thereof” (Baylor College of Medicine, priority 2020, dated 2026).

The target of this assay is Thrombin (Homo sapiens, UniProt P00734). As to the kind of experiment: Thrombin inhibition in vitro (Kiapp). The class given is biochemical. As to the method:
The inhibitory potency of Compound 1 on thrombin was tested in vitro.

For `CNC(=O)[C@@H]1CN(C(=O)[C@H](Cc2ccccc2CNC(=N)N)NC(=O)N(C)[C@H]2CCOc3ccccc32)C[C@H]1c1ccc(OC)cc1` [Compound 1], the Ki (in vitro, FIG. 1, read-out: inhibition constant (thrombin)) was found to be 1 nM. Further, the “potency relative to argatroban (thrombin inhibition)” value (ratio of inhibition constants vs argatroban) is “about 10 fold”.
